One data set concerns Huh7.5.1 cells. The experiment in a line: Cytotoxicity/cell viability assay (CellTiter-Glo). The data set is classed as cell-based. To be noted: 48 hours; hEP up to 100 μg/ml (~14 μM). Here is the method:
FIGS. 1A-1C. A human apoE derived peptide (hEP) suppresses HCV infection. (A) Schematic illustration of apoE protein domains and the amino acid sequences of hEP and mEP peptides. The amino acid sequences shown are hEP-1 (SEQ ID NO: 6) and mEP (SEQ ID NO: 20). (B) Dose dependent inhibition of HCVcc infection by hEP. Huh7.5.1 cells were infected with JFH-1 HCVcc-Luc (MOI˜0.5) in the presence of hEP or mEP for 2 hours. After removal of virus and peptides, cells were further incubated for 48 hours prior to luciferase assay. Data are presented as % inhibition relative to control infections in which cells were treated with DMSO (0%). Results are expressed as mean±standard deviation (s.d.) (n=3). (C). Huh7.5.1 cells were treated with hEP or DMSO at indicated doses for 48 hours. The effect of hEP on cell viability was measured by a CellTiter Glo assay kit.
Huh7.5.1 cells (10^5 per well) were treated with hEP or DMSO at various concentrations for 48 hours in 24-well plates. The numbers of viable cells in culture were determined using the CELLTITER-GLO® Cell Viability Luminescent Assay kit according to the manufacturer's instruction (Promega).
A general note: Cellular ATP, detected with luciferase, serves as a proxy for viable cell number.

The subject of data set [1] is HCVcc-luc. The experiment in a line: Attachment versus post-attachment inhibition assay. As to conditions: heparin 200 μg/ml, anti-CD81 5 μg/ml, hEP 20 μg/ml, bafilomycin A1 10 nM. The data set is classed as cell-based, Hepatitis C virus. Here is the method:
(§1) FIGS. 5A-5D. hEP inhibits HCV entry at the attachment step. (A) HCVcc-luc was first mixed with either scrambled peptide or hEP-2 (20 μg/ml) for one hour at room temperature. In Group 1, mixed virus was directly added to Huh7.5.1 cells, whereas in Group 2, virus was purified through ultracentrifuge at 28,000×g for 4 hours in order to remove peptide, and then used to infect Huh7.5.1 cells. **p<0.005. (B) The kinetics of hEP- and bafilomycin A1-mediated inhibition were determined by time-of-addition assays, as described in the examples section. Fitted lines represent sigmoidal time-dependent curves (mean of n=3; error bars, s.d.). (C) HCVcc-Luc was added to Huh7.5.1 cells at 4° C. and incubated for 1.5 hrs. Unbound virus was removed by 2 washes with cold media, fresh media was added, and the cells were shifted to 37° C. to allow synchronous infection to proceed. Heparin (200 μg/ml), anti-CD81 monoclonal antibody (5 μg/ml), hEP (20 μg/ml), or bafilomycin A1 (10 nM) were present in the media either continuously, during the 4° C. incubation only (attachment), or during the 37° C. incubation phase only (post-attachment). % Inhibition was calculated as 100-percent infection relative to control infections containing DMSO or an isotype antibody control containing 0.01% sodium azide (for anti-CD81 only) (mean of n=3; error bars, s.d.). (D) The effects of hEP (2.7 μM) or scrambled peptide on HCV binding were determined as described in the examples section. Results were calculated as relative RNA copies with numbers obtained from the scrambled peptide treated wells set to 100 (mean of n=3; error bars, s.d.). **p<0.005.
To investigate the mechanistic action of hEP, three sets of experiments were conducted. First, hEP-2 (SEQ ID NO: 9) or scrambled peptide-treated HCVcc were purified through ultracentrifugation to remove the peptide and then used to infect naïve Huh7.5.1 cells. […] Second, to determine the kinetics of inhibition, a time-of-addition experiment was conducted. HCV remained sensitive to bafilomycin A1, a fusion inhibitor that prevents endosome acidification, until 3 hours after the 37° C. temperature shift (FIG. 5B), which is consistent with previous reports (Koutsoudakis et al., J Virol 2006; 80:5308-5320). […] In order to determine whether hEP-2 (SEQ ID NO: 9) blocks infection at the initial attachment step or a downstream event in the HCV entry process, hEP-2 (SEQ ID NO: 9) was either added together with HCVcc to cells during the 4° C. attachment step only, and then removed prior to shifting the temperature to 37° C., or added only after the temperature shift. As a positive control, hEP-1 was present during the entire course of the experiment. […] Finally, the direct binding of virions to cell surface was measured using a real-time PCR based assay.

For data set [2], the system named is HCVcc-luc. Kind of data set: Time-of-addition assay. The data set is classed as cell-based, Hepatitis C virus. To be noted: 10 nM bafilomycin A1. The protocol: as §1, with “bars, s.d.). […] Heparin (200” for “bars, s.d.). (C) HCVcc-Luc was added to Huh7.5.1 cells at 4° C. and incubated for 1.5 hrs. Unbound virus was removed by 2 washes with cold media, fresh media was added, and the cells were shifted to 37° C. to allow synchronous infection to proceed. Heparin (200”, “s.d.). **p<0.005. […]” for “s.d.). **p<0.005.”

Take `C[C@H](N)C(=O)N[C@@H]1[C@H]2C(=C(O)C[C@@H](O)[C@@H]2O)C(=O)O[C@]1(C)C(Cl)Cl` [Bactobolin, reference compound]: the “Cytotoxicity (cell viability)” value in the data set with Huh7.5.1 cells is “induced significant cell death”.
With `CO/C1=C\C(C)=C\[C@@H](C)[C@@H](O)[C@@H](C)C/C(C)=C/C=C/[C@H](OC)[C@@H]([C@@H](C)[C@@H](O)[C@H](C)[C@@]2(O)C[C@@H](O)[C@H](C)[C@@H](C(C)C)O2)OC1=O` [bafilomycin A1, reference compound], the “Inhibition when present after the temperature shift only (post-attachment)” value with HCVcc-luc [1] is reported as “most effective”. In addition, the “Time after 37° C. temperature shift until which HCV remained sensitive” value in the data set with HCVcc-luc [2] is at most 3 h.

The values are drawn from patent publication US10125184B2, “Apolipoprotein E polypeptides and their use” (priority 2011, dated 2018).
